Results: US20200071316A1, “ACTIVATORS OF THE RETINOIC ACID INDUCIBLE GENE "RIG-I" PATHWAY AND METHODS OF USE THEREOF” (Kineta Immuno-Oncology LLC, priority 2018, published 2020)
Marks after values point to notes of the source that are not given here.

Columns and labels:
[1] = test system: CXCL10 secretion by CT26 cells; assay: RIG-I dependent CXCL10 secretion by CT26 colon carcinoma cells (ELISA); format: cell-based, murine; conditions: 24 h
Description: (§1) The CT26 murine colon carcinoma cell line (ATCC) was used to evaluate the induction of CXCL10 secretion. CXCL10 is an important chemokine in tumor immune biology that recruits tumor-specific T cells to the tumor. To confirm that compound-mediated CXCL10 production was RIG-I specific, RIG-I deficient CT2-RIG-1−/− cells were generated by Kineta using CRISPR technology.
(§2) CT26 cells were seeded at a density of 1×10^4 cells per well on a 96-well tissue culture plate in 100 μL of cell culture and cells were incubated at 37° C. and 5% CO2 for 24 hr. Next, CT26 cells were treated with compounds at the indicated concentrations. CXCL10 was quantified by ELISA from supernatants taken 24 h after compound stimulation by use of the CXCL10 DuoSet ELISA kit (Cat # DY466, R&D, Minneapolis, Minn., USA) according to the manufacturer's instructions.
(§3) CXCL10 secretion by CT26 cells in response to compounds (in an amount of 5 to 20 μM) of the present disclosure is shown in Table 8. The compound-induced CXCL10 production was RIG-I dependent, since none of the compounds mediated CXCL10 secretion in RIG-I deficient CT26 RIG-1−/− cells. The compounds (10 μM, *20 μM, **5 μM) are indicated in the table as follows: “−” indicates less than 100 pg/mL; “+” indicates 100-199 pg/mL; “++” indicates 200-399 pg/mL; “+++” indicates 400-799 pg/mL; “++++” indicates 800 to 1599 pg/mL; “+++++” indicates greater than or equal to 1600 pg/ml.

[2] = test system: THP1-Lucia ISG IRF3 −/− cells; assay: IRF3-deficient THP1-Lucia ISG IRF3 −/− reporter assay (counter-screen); format: cell-based; conditions: Homo sapiens, 18 h after stimulation, read-out: THP1 ISG IRF3 −/−: fold increase of luciferase activity over background; for fold induction at 5 µM: 5 μM compound (**); for fold induction at 10 µM: 10 μM compound
Description: (§4) The promotor was comprised of five IFN-stimulated response elements (ISRE) fused to an ISG54 minimal promotor which is unresponsive to NF-kB or AP-1 pathways. […] The IRF3-deficient THP1-Lucia™ ISG IRF3 −/− reporter cell line was generated by CRISPR technology from the parent THP1-Lucia™ ISG reporter cell line.
(§5) 5 THP1-Lucia™ ISG cells and IRF3-deficient THP1-Lucia™ ISG IRF3 −/− cells were differentiated with PMA (100 ng/ml) and stimulated with compounds at the indicated concentrations (5 to 20 μM), positive control, or not treated (background). Luciferase secretion was quantified using the QUANTI-Luc luciferase assay system (InvivoGen) 18 h after stimulation. Data are shown as fold increase luciferase activity over background in Table 7 and represent the IRF3-dependent ISG54 promotor activity by the THP1-Lucia™ ISG cells in response to compounds. […] The fold increase of compounds (10 μM, *20 μM, **5 μM) induced IRF3 dependent luciferase activity is indicated as follows: “−” indicates less than 2.4 fold increase; “+” indicates a 2.4-4.9 fold increase; “++” indicates a 5-9.9 fold increase; “+++” indicates a 10-19 fold increase; “++++” indicates a 20-39 fold increase; “+++++” indicates greater than or equal to 40 fold increase.

[3] = test system: RIG-I deficient CT26 RIG-1−/− cells; assay: CXCL10 secretion in RIG-I deficient CT26 RIG-1−/− cells (ELISA); format: cell-based, murine; conditions: 24 h
Description: as §1, §2, §3

[4] = test system: IRF3 signaling pathway (IRF-inducible ISG54 promotor) in THP1-Lucia ISG cells; assay: THP1-Lucia ISG reporter assay: induction of IRF3-dependent luciferase activity; format: cell-based; conditions: Homo sapiens, PMA-differentiated cells, 18 h after stimulation, read-out: THP1 ISG: fold increase of IRF3-dependent luciferase activity over background; for fold induction at 10 µM: 10 μM compound
Description: The compounds were evaluated in the THP1-Lucia™ ISG (interferon stimulated genes) reporter assay to determine if the compounds activate the IRF3 signaling pathway. The THP1-Lucia™ cells (InvivoGen) express the secreted luciferase (Lucia) reporter gene under the control of an IRF-inducible promotor. The reporter cell line was developed from human monocytic leukemia THP-1 cells.
as §4, §5

SMILES | CXCL10 secretion by CT26 cells ([1]; 20 μM compound (*)) | fold induction at 5 µM [2] | CXCL10 secretion by CT26 RIG-I −/− cells ([3]; 20 μM compound (*)) | fold induction at 20 µM ([4]; 20 μM compound (*)) | CXCL10 secretion by CT26 cells ([1]; 10 μM compound) | fold induction at 10 µM [2] | CXCL10 secretion by CT26 RIG-I −/− cells ([3]; 10 μM compound) | fold induction at 10 µM [4] | CXCL10 secretion by CT26 cells ([1]; 5 μM compound (**)) | CXCL10 secretion by CT26 RIG-I −/− cells ([3]; 5 μM compound (**)) | fold induction at 5 µM ([4]; 5 μM compound (**))
N#Cc1ccc2nc(NC(=O)c3cc4ccccc4cc3OCCCCN3CCOCC3)sc2c1 [Example 25, N-(6-cyano-1,3-benzothiazol-2-yl)-3-[4-(morpholin-4-yl)butoxy]naphthalene-2-carboxamide] | +* (“+” indicates 100-199 pg/mL) | < 2.4 | −* (“−” indicates less than 100 pg/mL) | 2.4 to 4.9 |  |  |  |  |  |  | 
O=C(Nc1cc2ccc(S(=O)(=O)N3CCCC3)cc2s1)c1ccc(-c2ccccc2)cc1 [Example 81, N-[6-(pyrrolidine-1-sulfonyl)-1-benzothiophen-2-yl]-[1,1′-biphenyl]-4-carboxamide] |  |  |  |  | ++++ (“++++” indicates 800 to 1599 pg/mL) | < 2.4 | − (“−” indicates less than 100 pg/mL) | 20 to 39 |  |  | 
COC(=O)c1ccc2nc(NC(=O)c3ccc4ccccc4c3)sc2c1 [Example 2, methyl 2-(naphthalene-2-amido)-1,3-benzothiazole-6-carboxylate] |  |  |  |  | ++++ (“++++” indicates 800 to 1599 pg/mL) | < 2.4 | − (“−” indicates less than 100 pg/mL) | ≥ 40 |  |  | 
O=C(Nc1nc2ccc([N+](=O)[O-])cc2s1)c1cc2ccccc2cc1OCCN1CCOCC1 [Example 20, 3-[2-(morpholin-4-yl)ethoxy]-N-(6-nitro-1,3-benzothiazol-2-yl)naphthalene-2-carboxamide] |  |  |  |  |  | < 2.4 |  | 10 to 19 | +** (“+” indicates 100-199 pg/mL) | −** (“−” indicates less than 100 pg/mL) | 
O=C(Nc1nc2ccc(S(=O)(=O)N3CCC(O)C3)cc2s1)c1cc2ccccc2cc1OCCN1CCOCC1 (stereo not shown) [Example 56, N-{6-[(3-hydroxypyrrolidin-1-yl)sulfonyl]-1,3-benzothiazol-2-yl}-3-[2-(morpholin-4-yl)ethoxy]naphthalene-2-carboxamide] |  |  |  |  | +++ (“+++” indicates 400-799 pg/mL) | < 2.4 | − (“−” indicates less than 100 pg/mL) | 10 to 19 |  |  | 
O=C(Nc1nc2ccc(-c3nc4ccccc4[nH]3)cc2s1)c1ccc2ccccc2c1 [Example 10, N-[6-(1H-1,3-benzodiazol-2-yl)-1,3-benzothiazol-2-yl]naphthalene-2-carboxamide] |  |  |  |  | +++ (“+++” indicates 400-799 pg/mL) | < 2.4 | − (“−” indicates less than 100 pg/mL) | 5 to 9.9 |  |  | 
CS(=O)(=O)Nc1ccc2nc(NC(=O)c3cc4ccccc4cc3OCCN3CCOCC3)sc2c1 [Example 28, N-(6-methanesulfonamido-1,3-benzothiazol-2-yl)-3-[2-(morpholin-4-yl)ethoxy]naphthalene-2-carboxamide] |  |  |  |  | + (“+” indicates 100-199 pg/mL) | < 2.4 | − (“−” indicates less than 100 pg/mL) | 2.4 to 4.9 |  |  | 
O=C(Nc1cc2ccc(S(=O)(=O)N3CCCC3)cc2s1)c1cc2c(cc1OCCN1CCOCC1)OCO2 [Example 75] |  |  |  |  | ++ (“++” indicates 200-399 pg/mL) | < 2.4 | − (“−” indicates less than 100 pg/mL) | 5 to 9.9 |  |  | 
O=C(Nc1nc2ccc(S(=O)(=O)N3CC4(COC4)C3)cc2s1)c1cc2ccccc2cc1OCCN1CCOCC1 [Example 65, 3-[2-(morpholin-4-yl)ethoxy]-N-(6-{2-oxa-6-azaspiro[3.3]heptane-6-sulfonyl}-1,3-benzothiazol-2-yl)naphthalene-2-carboxamide] |  |  |  |  | + (“+” indicates 100-199 pg/mL) | < 2.4 | − (“−” indicates less than 100 pg/mL) | 2.4 to 4.9 |  |  | 
CS(=O)(=O)c1ccc2nc(NC(=O)c3cc4ccccc4cc3OCCCCN3CCOCC3)sc2c1 [Example 45, N-(6-methanesulfonyl-1,3-benzothiazol-2-yl)-3-[4-(morpholin-4-yl)butoxy]naphthalene-2-carboxamide] |  |  |  |  | ++++ (“++++” indicates 800 to 1599 pg/mL) | < 2.4 | − (“−” indicates less than 100 pg/mL) | 5 to 9.9 |  |  | 
O=C(Nc1nc2ccc(S(=O)(=O)N3CCCC3)cc2s1)c1ccc(-c2ccccc2)cc1OCCCCN1CCOCC1 [Example 41, 3-[4-(morpholin-4-yl)butoxy]-N-[6-(pyrrolidine-1-sulfonyl)-1,3-benzothiazol-2-yl]-[1,1′-biphenyl]-4-carboxamide] |  |  |  |  | +++++ (“+++++” indicates greater than or equal to 1600 pg/ml) | < 2.4 | − (“−” indicates less than 100 pg/mL) | 20 to 39 |  |  | 
O=C(Nc1ccccn1)c1ccc2nc(NC(=O)c3ccc4ccccc4c3)sc2c1 [Example 14, 2-(naphthalene-2-amido)-N-(pyridin-2-yl)-1,3-benzo-thiazole-6-carboxamide] |  |  |  |  | ++++ (“++++” indicates 800 to 1599 pg/mL) | < 2.4 | − (“−” indicates less than 100 pg/mL) | 20 to 39 |  |  | 
O=C(Nc1nc2ccc([N+](=O)[O-])cc2s1)c1cc2ccccc2cc1OCCCCN1CCOCC1 [Example 23, 3-[4-(morpholin-4-yl)butoxy]-N-(6-nitro-1,3-benzothiazol-2-yl)naphthalene-2-carboxamide] |  | < 2.4 |  |  |  |  |  |  | ++++** (“++++” indicates 800 to 1599 pg/mL) | −** (“−” indicates less than 100 pg/mL) | 5 to 9.9
O=C(Nc1nc2ccc(S(=O)(=O)N3CCC3)cc2s1)c1cc2ccccc2cc1OCCCCN1CCOCC1 [Example 36, N-[6-(azetidine-1-sulfonyl)-1,3-benzothiazol-2-yl]-3-[4-(morpholin-4-yl)butoxy]naphthalene-2-carboxamide] |  |  |  |  | +++ (“+++” indicates 400-799 pg/mL) | < 2.4 | − (“−” indicates less than 100 pg/mL) | 10 to 19 |  |  | 
O=C(Nc1nc2ccc(S(=O)(=O)N3CCC3)cc2s1)c1cc2ccsc2cc1OCCCCN1CCOCC1 [Example 63, N-[6-(azetidine-1-sulfonyl)-1,3-benzothiazol-2-yl]-6-[4-(morpholin-4-yl)butoxy]-1-benzothiophene-5-carboxamide] |  |  |  |  | + (“+” indicates 100-199 pg/mL) | < 2.4 | − (“−” indicates less than 100 pg/mL) | 2.4 to 4.9 |  |  | 
CS(=O)(=O)c1ccc2nc(NC(=O)c3cc4ccccc4cc3OCCN3CCOCC3)sc2c1 [Example 44, N-(6-methanesulfonyl-1,3-benzothiazol-2-yl)-3-[2-(morpholin-4-yl)ethoxy]naphthalene-2-carboxamide] |  |  |  |  |  | < 2.4 |  | < 2.4 | ++** (“++” indicates 200-399 pg/mL) | −** (“−” indicates less than 100 pg/mL) | 
